From US20140283155A1, “REPRESSIBLE LETHAL SYSTEM FOR REGULATING INSECT POPULATIONS” (California Institute of Technology, priority 2013, published 2014)

System: Drosophila melanogater
Assay: Evaluation of VanDal system in biological control (in vivo functionality, survival of transgenic lines and progeny)
Settings: diet supplemented with a low dose vanillic acid
Description: To engineer a dominant vanillic acid-repressible lethal system (VanDal system), a plasmid was constructed, in which the C-terminus of VanR was fused with the Herpes simplex virus transactivation domain VP16, generating a chimeric transcription factor (vanRTF) (as descried in Hagmann et al., 1997). The chimeric transcription factor VanR^TF was driven at high levels, in a ubiquitous pattern, using a baculovirus immediate early (iel) promoter separated by a baculovirus enhancer (hr5) (as described in Bossin et al., 2007). On the same plasmid, but facing in the opposite direction, VanO operator sequences were placed upstream of the P_hsp70^min promoter (as described in Amin et al., 1987), and the P_hsp70^min promoter drove the expression of toxin VP16. The vanillic acid-repressible lethal system resides in a single piggyback transposable element that also includes a positive selection marker gene, (Opie2-dsRed), to facilitate the identification of transgenic insects.
In this example, in vivo functionality of the VanDal system prepared according to the general procedure of Example 1 was evaluated in Drosophila melanogater, an insect model organism. […] To simulate a release into the wild, two crosses in the absence of vanillic acid were set up: 1) homozygous VanDal males mated separately to wildtype virgin females and 2) homozygous Vandal females mated separately to wildype males.

COc1cc(C(=O)O)ccc1O [vanillic acid, 4-hydroxy-3-methoxybenzoic acid]
survival of transgenic VanDal lines: only survive when fed a diet supplemented with a low dose vanillic acid
